Reference: EP2550964A1, “Temsirolimus for use in the prevention and/or treatment of a delta 9-tetrahydrocannabinol-induced anxiety disorder” (Universitat Pompeu-Fabra, priority 2011, dated 2013)

Tests used:
Type in all cases: in vivo
mice [1] = tested on: mice
Experimental: Elevated plus maze test. The elevated plus maze test was performed in a black Plexiglas apparatus with four arms (29 cm long x 5 cm wide) set in cross from a neutral central square (5 cm x 5 cm) elevated 40 cm above the floor. Five-min test sessions were performed 120 min after drug administration through intraperitoneal injection (temsirolimus and/or THC, and their vehicles). The percentage of time spent in the open arms was determined as a measure of anxiety-like processes. The model is based on rodents' aversion of open spaces. Anxiety reduction in the elevated plus maze test is indicated by an increase in the proportion of time spent in the open arms

mice [2] = experiment: Antinociception, acetic acid visceral pain test (number of writhes)
Experimental: This visceral pain test was performed 120 min after THC administration. Mice received an i.p. administration of acetic acid (0.8 % solution) injected in a volume of […] of body weight. Immediately after, mice were placed in individual transparent cylinders (16 cm high, 16 cm diameter) for 20 min. The number of writhes was counted during 15 min, starting 5 min after acetic acid administration.

mice [3] = experiment: Object-recognition task (V-maze, discrimination index)
Experimental: Object-recognition memory was assayed in the V-maze, a black Plexiglas maze with two corridors (30 cm long x 4.5 cm wide) set in V with a 90 degrees angle, and 15 cm high walls. The test was performed as previously described (Puighermanal, E. et al., 2009. Nature Neuroscience, 12:1152-1158). Briefly, a discrimination index was calculated in the test session. All the drugs (temsirolimus or THC and their vehicles) were injected intraperitoneally after the training session. Objects to be explored in the test were made out of different materials (marble, wood or plastic) and shapes, and had been tested in previous experiments to show no preference or dislike for control mice. On the first day, mice were placed for 9 min in the V-maze for habituation. On the second day, mice were placed back in the V-maze where two objects were positioned at the end of the corridors. On the next day (test day), mice were placed in the V-maze where one of the objects was replaced by a new object. The time spent exploring the familiar object (Tf) and the novel object (Tn) were counted and the discrimination index (D.I.) was calculated as follows: D.I.= [Tn-Tf]/[Tn+Tf]. D.I. close to zero means a cognitive deficit, while D.I. close to 0.5 means a good cognitive function in this memory test.

## CCCCCc1cc(O)c2c(c1)OC(C)(C)[C@@H]1CCC(C)=C[C@@H]21 [THC, (-)-(6aR,10aR)-6,6,9-trimethyl-3-pentyl-6a,7,8,10a-tetrahydro-6H-benzo[c]chromen-1-ol]
Mice [1]; mouse, in vivo
  anxiety-like effect of THC at low dose: causes anxiolytic effects
Mice [1]; mouse, in vivo, 10 mg/kg/day
  anxiety-like effect of THC at high doses: cause anxiogenic effects
Mice [2]; mouse, in vivo
  analgesic effects (abdominal writhes): has analgesic effects
Mice [3]; mouse, in vivo
  cognitive deficit on chronic administration (object-recognition test): produces a cognitive deficit
  persistence of cognitive deficit after finishing the exposition to THC: continues showing a cognitive deficit during the following four days
Mice [3]; mouse, in vivo, ip
  amnesic effect in the object-recognition test: always presents an amnesic effect

## CO[C@H]1C[C@@H]2CC[C@@H](C)[C@@](O)(O2)C(=O)C(=O)N2CCCC[C@H]2C(=O)O[C@H]([C@H](C)C[C@@H]2CC[C@@H](OC(=O)C(C)(CO)CO)[C@H](OC)C2)CC(=O)[C@H](C)/C=C(\C)[C@@H](O)[C@@H](OC)C(=O)[C@H](C)C[C@H](C)/C=C/C=C/C=C/1C [temsirolimus, (1R,2R,4S)-4-{(2R)-2-[(3S,6R,7E,9R,10R,12R,145,15E,17E,19E,215,23S,26R,27R,34aS)-9,27-dihydroxy-10,21-dimethoxy-6,8,12,14,20,26-hexamethyl-1,5,11,28,29-pentaoxo-1,4,5,6,9,10,11,12,13,14,21,22,23,24,25,26,27,28,29,31,32,33,34,34a-tetracosahydro-3H-23,27-epoxypyrido[2,1-c][1,4]oxazacyclohentriacontin-3-yl]propyl}-2-methoxycyclohexyl 3-hydroxy-2-(hydroxymethyl)-2-methylpropanoate]
Mice [1]; temsirolimus 1 mg/kg/day (3 mg/m^2/day), THC 0.3 mg/kg/day (0.9 mg/m^2/day), Figure 5
  influence on the anxiolytic effect of THC: does not avoid the anxiolytic effect
Mice [1]; temsirolimus 1 mg/kg/day (3 mg/m^2/day), THC 10 mg/kg/day (30 mg/m^2/day), i.p., test 120 min after administration, Figure 4
  blockade of the anxiogenic effects of THC: blocks the anxiogenic effects
Mice [2]; pre-treatment with temsirolimus 1 mg/kg/day (3 mg/m^2/day) and THC 10 mg/kg/day (30 mg/m^2/day), Figure 6
  influence on the analgesic capacity of THC: does not affect the analgesic capacity of THC
Mice [3]; pre-treatment with temsirolimus 1 mg/kg/day (3 mg/m^2/day), THC 10 mg/kg/day (30 mg/m^2/day), Figure 2
  blockade of the amnesic effect of THC: blocks the amnesic effect
Mice [3]; temsirolimus 1 mg/kg/day (3 mg/m^2/day) together with THC 10 mg/kg/day (30 mg/m^2/day), chronic, Figure 3B
  prevention of the THC cognitive deficit on chronic co-administration: prevented the appearance of the THC cognitive deficit
Mice [3]; temsirolimus alone, 1 mg/kg/day (3 mg/m^2/day), i.p., Figure 1
  effects on the recognition memory: does not have effects on the recognition memory
Mice [3]; temsirolimus alone, high doses 10, 30 and 100 mg/kg/day (30, 90 and 300 mg/m^2/day), i.p., Figure 1
  amnesic effects (object-recognition test): shows amnesic effects
